Reference: US12428406B2 (PMV Pharmaceuticals, Inc., priority 2019, dated 2025)

molecular target: T1, p53 Y220C (Homo sapiens, UniProt P04637, Y220C); assay: In vitro DNA binding activity assay (HTRF / TR-FRET): stabilization of p53 Y220C and increase of its DNA binding activity; format: biochemical; conditions: recombinant His-tagged p53 Y220C DNA binding domain (aa 94-312), biotin-labeled consensus DNA, incubated at 27° C. or 29° C. for 60 min
T1 construct: The recombinant protein was a truncation mutant containing only amino acids 94-312 of p53; made in house; host or cells: E. coli
Summary of the method: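 Test compounds, diluted 3-fold in DMSO from 4.5 mM stocks, were incubated with bacterially expressed His-tagged p53 Y220C at room temperature for 15 min, and after a further step for 20 min. DNA binding was detected by time-resolved FRET between APC and europium labels. SC150 marks the concentration increasing binding by 50%.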

T1 sequence (P04637 94-312, change not shown): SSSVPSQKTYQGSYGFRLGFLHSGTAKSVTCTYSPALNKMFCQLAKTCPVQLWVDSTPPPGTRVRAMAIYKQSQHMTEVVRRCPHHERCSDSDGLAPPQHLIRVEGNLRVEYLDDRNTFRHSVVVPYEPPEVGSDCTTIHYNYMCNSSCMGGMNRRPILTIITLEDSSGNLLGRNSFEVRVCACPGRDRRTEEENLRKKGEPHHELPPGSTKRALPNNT

Compound	SC150 (concentration of the compound required to increase the DNA binding activity by 50%)
CNC(=O)c1ccc(NCC#Cc2cc3c(N[C@H]4CC[C@H](N(C)C)CC4)cccc3n2CC(F)(F)F)c(OC)c1 [Compound 74A, 3-methoxy-N-methyl-4-{[3-(4-{[(1R,4R)-4-(dimethylamino)cyclohexyl]amino}-1-(2,2,2-trifluoroethyl)-1H-indol-2-yl)prop-2-yn-1-yl]amino}benzamide]	+ (+ = 0 μM ≤ SC150 < 0.05 μM)
COc1cc(S(C)(=O)=O)ccc1NCC#Cc1cc2c(NC3CCN(C[C@@H](CO)OC)CC3)cccc2n1CC(F)(F)F [Compound 630A, (2S)-3-{4-[(2-{3-[(4-methanesulfonyl-2-methoxyphenyl)amino]prop-1-yn-1-yl}-1-(2,2,2-trifluoroethyl)-1H-indol-4-yl)amino]piperidin-1-yl}-2-methoxypropan-1-ol]	+ (+ = 0 μM ≤ SC150 < 0.05 μM)
COc1cc(S(=O)(=O)N(C)CCO)ccc1NCC#Cc1cc2c(NC3CCN(C4CCOCC4)CC3)cccc2n1CC(F)(F)F [Compound 555A, N-(2-hydroxyethyl)-3-methoxy-N-methyl-4-{[3-(4-{[1-(oxan-4-yl)piperidin-4-yl]amino}-1-(2,2,2-trifluoroethyl)-1H-indol-2-yl)prop-2-yn-1-yl]amino}benzene-1-sulfonamide]	+ (+ = 0 μM ≤ SC150 < 0.05 μM)
COc1cc(C(=O)O)ccc1NCC#Cc1cc2c(N[C@H]3CCN(C)C[C@H]3F)cccc2n1CC(F)(F)F [Compound 780A, 4-{[3-(4-{[(3R,4S)-3-fluoro-1-methylpiperidin-4-yl]amino}-1-(2,2,2-trifluoroethyl)-1H-indol-2-yl)prop-2-yn-1-yl]amino}-3-methoxybenzoic acid]	+ (+ = 0 μM ≤ SC150 < 0.05 μM)
COCC(O)CN1CC[C@H](Nc2cccc3c2cc(C#CCNc2ccc(S(C)(=O)=O)cc2OC)n3CC(F)(F)F)[C@H](C)C1 (mixture of isomers) [Compound 701A, rac-1-[(3R,4R)-4-[(2-{3-[(4-methanesulfonyl-2-methoxyphenyl)amino]prop-1-yn-1-yl}-1-(2,2,2-trifluoroethyl)-1H-indol-4-yl)amino]-3-methylpiperidin-1-yl]-3-methoxypropan-2-ol]	+ (+ = 0 μM ≤ SC150 < 0.05 μM)
CNC(=O)c1ccc(NCC#Cc2cc3c(N[C@H]4CC[C@H](N5CCCC5)CC4)cccc3n2CC(F)(F)F)c(OC)c1 [Compound 420A, 3-methoxy-N-methyl-4-{[3-(4-{[(1R,4R)-4-(pyrrolidin-1-yl)cyclohexyl]amino}-1-(2,2,2-trifluoroethyl)-1H-indol-2-yl)prop-2-yn-1-yl]amino}benzamide]	+ (+ = 0 μM ≤ SC150 < 0.05 μM)
COc1cc(S(=O)(=O)N(CCO)CCO)ccc1NCC#Cc1cc2c(N[C@H]3CC[C@H](N(C)C)CC3)cccc2n1CC(F)(F)F [Compound 70A, N,N-bis(2-hydroxyethyl)-3-methoxy-4-{[3-(4-{[(1R,4R)-4-(dimethyl-amino)cyclohexyl]amino}-1-(2,2,2-trifluoroethyl)-1H-indol-2-yl)prop-2-yn-1-yl]amino}benzene-1-sulfonamide]	+ (+ = 0 μM ≤ SC150 < 0.05 μM)
CNC(=O)c1ccc(NCC#Cc2cc3c(NC4CCN(CC(O)COC)CC4)cccc3n2CC(F)(F)F)c(OC)c1 (stereo not drawn) [Compound 601A, 4-{[3-(4-{[1-(2-hydroxy-3-methoxypropyl)piperidin-4-yl]amino}-1-(2,2,2-trifluoroethyl)-1H-indol-2-yl)prop-2-yn-1-yl]amino}-3-methoxy-N-methylbenzamide]	+ (+ = 0 μM ≤ SC150 < 0.05 μM)
CNc1cc(S(C)(=O)=O)ccc1OCC#Cc1cc2c(N[C@H]3CC[C@@H](N4CC5(COC5)C4)CC3)cccc2n1CC(F)(F)F [Compound 244A, 2-{3-[4-methanesulfonyl-2-(methylamino)phenoxy]prop-1-yn-1-yl}-N-[(1S,4S)-4-{2-oxa-6-azaspiro[3.3]heptan-6-yl}cyclohexyl]-1-(2,2,2-trifluoroethyl)-1H-indol-4-amine]	++ (++ = 0.05 μM ≤ SC150 < 0.1 μM)
COCCn1cc(-c2ccc(NCC#Cc3cc4c(NC5CCN(C)CC5)cccc4n3CC(F)(F)F)c(OC)c2)cn1 [Compound 510A, 2-[3-({2-methoxy-4-[1-(2-methoxyethyl)-1H-pyrazol-4-yl]phenyl}amino)prop-1-yn-1-yl]-N-(1-methylpiperidin-4-yl)-1-(2,2,2-trifluoroethyl)-1H-indol-4-amine]	+ (+ = 0 μM ≤ SC150 < 0.05 μM)
CCNC(=O)c1ccc(NCC#Cc2cc3c(N[C@@H]4CCNC[C@@H]4F)cccc3n2CC(F)(F)F)c(OC)c1 [Compound 1062A, N-ethyl-4-{[3-(4-{[(3S,4R)-3-fluoropiperidin-4-yl]amino}-1-(2,2,2-trifluoroethyl)-1H-indol-2-yl)prop-2-yn-1-yl]amino}-3-methoxybenzamide]	+ (+ = 0 μM ≤ SC150 < 0.05 μM)
COc1cc(C(=O)N2CC3(COC3)C2)ccc1NCC#Cc1cc2c(N[C@@H]3CCN(C)C[C@@H]3F)cccc2n1CC(F)(F)F [Compound 906A, N-[(3S,4R)-3-fluoro-1-methylpiperidin-4-yl]-2-{3-[(2-methoxy-4-{2-oxa-6-azaspiro[3.3]heptane-6-carbonyl}phenyl)amino]prop-1-yn-1-yl}-1-(2,2,2-trifluoroethyl)-1H-indol-4-amine]	+ (+ = 0 μM ≤ SC150 < 0.05 μM)
CNC(=O)c1ccc(NCC#Cc2cc3c(N[C@H]4CC[C@@](C)(O)CC4)cccc3n2CC(F)(F)F)c(OC)c1 [Compound 32A, 3-methoxy-N-methyl-4-{[3-(4-{[(1S,4S)-4-hydroxy-4-methylcyclohexyl]amino}-1-(2,2,2-trifluoroethyl)-1H-indol-2-yl)prop-2-yn-1-yl]amino}benzamide]	+ (+ = 0 μM ≤ SC150 < 0.05 μM)
COc1cc(S(=O)(=O)NC2CCOCC2)ccc1NCC#Cc1cc2c(NC3CCN(C)CC3)cccc2n1CC(F)(F)F [Compound 470A, 3-methoxy-4-[(3-{4-[(1-methylpiperidin-4-yl)amino]-1-(2,2,2-trifluoroethyl)-1H-indol-2-yl}prop-2-yn-1-yl)amino]-N-(oxan-4-yl)benzene-1-sulfonamide]	+ (+ = 0 μM ≤ SC150 < 0.05 μM)
CNC(=O)c1ccc(NCC#Cc2cc3c(N[C@H]4CC[C@](C)(O)CC4)cccc3n2CC(F)(F)F)c(OC)c1 [Compound 31A, 3-methoxy-N-methyl-4-{[3-(4-{[(1R,4R)-4-hydroxy-4-methylcyclohexyl]amino}-1-(2,2,2-trifluoroethyl)-1H-indol-2-yl)prop-2-yn-1-yl]amino}benzamide]	+ (+ = 0 μM ≤ SC150 < 0.05 μM)
CCC(=O)OC(COC)CN1CCC(Nc2cccc3c2cc(C#CCNc2ccc(C(=O)NC)cc2OC)n3CC(F)(F)F)CC1 (stereo not drawn) [Compound 657A, 1-methoxy-3-(4-{[2-(3-{[2-methoxy-4-(methylcarbamoyl)phenyl]amino}prop-1-yn-1-yl)-1-(2,2,2-trifluoroethyl)-1lH-indol-4-yl]amino}piperidin-1-yl)propan-2-yl propanoate]	+ (+ = 0 μM ≤ SC150 < 0.05 μM)
COc1cc(S(C)(=O)=O)ccc1NCC#Cc1cc2c(N[C@H]3CCOC[C@H]3OC)cccc2n1CC(F)(F)F [Compound 1024A, 2-(3-((2-methoxy-4-(methylsulfonyl)phenyl)amino)prop-1-yn-1-yl)-N-((3S,4S)-3-methoxytetrahydro-2H-pyran-4-yl)-1-(2,2,2-trifluoroethyl)-1H-indol-4-amine]	+ (+ = 0 μM ≤ SC150 < 0.05 μM)
N#CCOc1cc(S(N)(=O)=O)ccc1NCC#Cc1cc2c(NC3CCC(N4CC5(COC5)C4)CC3)cccc2n1CC(F)(F)F [Compound 259A, 3-(cyanomethoxy)-4-{[3-(4-{[(1R,4R)-4-{2-oxa-6-azaspiro[3.3]heptan-6-yl}cyclo-hexyl]amino}-1-(2,2,2-trifluoroethyl)-1H-indol-2-yl)prop-2-yn-1-yl]amino}benzene-1-sulfonamide]	+ (+ = 0 μM ≤ SC150 < 0.05 μM)
COc1cc(S(C)(=O)=O)ccc1NCC#Cc1cc2c(NC(=O)NC3CCN(CCO)CC3)cccc2n1CC(F)(F)F [Compound 17A, 1-[1-(2-hydroxyethyl)piperidin-4-yl]-3-(2-{3-[(4-methanesulfonyl-2-methoxyphenyl)amino]prop-1-yn-1-yl}-1-(2,2,2-trifluoroethyl)-1H-indol-4-yl)urea]	++++ (++++ = 0.2 μM ≤ SC150 < 1 μM)
COc1cc(S(C)(=O)=O)ccc1NCC#Cc1cc2c(N[C@H]3CCN(C(=O)CN)C[C@H]3F)cccc2n1CC(F)(F)F [Compound 892A]	+ (+ = 0 μM ≤ SC150 < 0.05 μM)
COc1cc(S(N)(=O)=O)ccc1NCC#Cc1cc2c(NC3CC4(CNC4)C3)cccc2n1CC(F)(F)F [Compound 21A, 4-({3-[4-({2-azaspiro[3.3]heptan-6-yl}amino)-1-(2,2,2-trifluoroethyl)-1H-indol-2-yl]prop-2-yn-1-yl}amino)-3-methoxybenzene-1-sulfonamide]	+ (+ = 0 μM ≤ SC150 < 0.05 μM)
